Where two headings read alike, the source gives them in different places.
How the values were obtained:
Type in all cases: cell-based
HeLa (cervical cancer) = assay: Antiproliferative activity (CCK-8 cell viability), HeLa; details: Homo sapiens, 72 h; for inhibition at 3.3 µM: Compound concentration: 3.3 μM; for inhibition at 10 µM: Compound concentration: 10 μM; for inhibition at 30 µM: Compound concentration: 30 μM
Method in brief: (§1)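 Cells were seeded at 2,000-5,000/well (HeLa in MEM, HepG2 and SW480 in DMEM, A549 in F-12K, all with 10% FBS) and treated with compound at 3.3, 10 or 30 μM for 72 h at 37° C. CCK-8 was added for 4 h, absorbance was read at 450 nm, and viability was expressed relative to DMSO-treated wells.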

HepG2 (liver cancer) = assay: Antiproliferative activity (CCK-8 cell viability), HepG2; details: Homo sapiens, 72 h; for inhibition at 3.3 µM: Compound concentration: 3.3 μM; for inhibition at 10 µM: Compound concentration: 10 μM; for inhibition at 30 µM: Compound concentration: 30 μM
Method in brief: as §1

[1] = tested on: alpha-smooth muscle actin (α-SMA); assay: Inhibition of TGF-β induced expression of alpha-smooth muscle actin (α-SMA) in CFSC cells (western blot); details: compound at 10 μM, TGF-β (10 ng/mL), 24 hours, band intensity vs TGF-β only
Method in brief: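 CFSC hepatic stellate cells in serum-free DMEM treated 24 h at 37 °C with compound at 10 μM plus TGF-β (10 ng/mL). α-SMA measured by Western blot with β-actin, ECL detection, densitometry. Percent inhibition is decrease in band intensity versus TGF-β-only cells.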

[2] = tested on: MDA-MB-231 (breast cancer); assay: Antiproliferative activity (CCK-8 cell viability), MDA-MB-231; details: Homo sapiens, 72 h, read-out: Antiproliferative activity in cancerous cells, MDA-MB-231 (inhibition of cell growth); for inhibition at 3.3 µM: Compound concentration: 3.3 μM; for inhibition at 10 µM: Compound concentration: 10 μM; for inhibition at 30 µM: Compound concentration: 30 μM
Method in brief: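 In this CCK-8 viability assay, MDA-MB-231 cells maintained in Dulbecco's modified Eagle's medium containing 10% fetal bovine serum were placed in 96-well plates (2,000-5,000 cells/well) and treated with compound for 72 h at 37° C. A 4 h incubation with 10 μL CCK-8 followed, plates were read at 450 nm, and viability was expressed against DMSO vehicle wells across replicates.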

SW480 (colon cancer) = assay: Antiproliferative activity (CCK-8 cell viability), SW480; details: Homo sapiens, 72 h; for inhibition at 3.3 µM: Compound concentration: 3.3 μM; for inhibition at 10 µM: Compound concentration: 10 μM; for inhibition at 30 µM: Compound concentration: 30 μM
Method in brief: as §1

[3] = tested on: A431 (epidermoid carcinoma); assay: Antiproliferative activity (CCK-8 cell viability), A431; details: Homo sapiens, 72 h; for inhibition at 3.3 µM: A-431, Compound concentration: 3.3 μM; for inhibition at 10 µM: A-431, Compound concentration: 10 μM; for inhibition at 30 µM: A-431, Compound concentration: 30 μM
Method in brief: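 Cell viability of compound-treated A431 cells was measured with a Cell Counting Kit-8. Each well received 10 μL of CCK-8 after 72 h of compound exposure, followed by 4 h incubation at 37° C. and a 450 nm plate-reader measurement. Percent viability was calculated relative to DMSO controls across replicates.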

[4] = tested on: B16F10 (malignant melanoma); assay: Antiproliferative activity (CCK-8 cell viability), B16F10; details: Mus musculus, 72 h; for inhibition at 3.3 µM: B16-F10, Compound concentration: 3.3 μM; for inhibition at 10 µM: B16-F10, Compound concentration: 10 μM; for inhibition at 30 µM: B16-F10, Compound concentration: 30 μM
Method in brief: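 Attached B16F10 cells in 96-well plates were incubated with compound at 37° C for 72 h, followed by 10 μL CCK-8 reagent per well and a further 4 h incubation. A multi-well plate reader measured absorbance at 450 nm. Percent viability across replicates was calculated against DMSO vehicle-treated cells.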

[5] = tested on: A549 (lung adenocarcinoma); assay: Antiproliferative activity (CCK-8 cell viability), A549; details: Homo sapiens, 72 h; for inhibition at 3.3 µM: Compound concentration: 3.3 μM; for inhibition at 10 µM: Compound concentration: 10 μM; for inhibition at 30 µM: Compound concentration: 30 μM
Method in brief: as §1

[6] = read-out: Antiproliferative activity in cancerous cells, HELA (inhibition of cell growth)
[7] = read-out: Antiproliferative activity in cancerous cells, HepG2 (inhibition of cell growth)
[8] = read-out: Antiproliferative activity in cancerous cells, HepG2
[9] = read-out: Antiproliferative activity in cancerous cells, SW480 (inhibition of cell growth)
[10] = read-out: Antiproliferative activity in cancerous cells, A431 (inhibition of cell growth)
[11] = read-out: Antiproliferative activity in cancerous cells, A431
[12] = read-out: Antiproliferative activity in cancerous cells, B16F10 (inhibition of cell growth)
[13] = read-out: Antiproliferative activity in cancerous cells, B16F10
[14] = read-out: Antiproliferative activity in cancerous cells, A549 (inhibition of cell growth)
[15] = read-out: Antiproliferative activity in cancerous cells, A549
[16] = read-out: Antiproliferative activity in cancerous cells, HELA

CC1=C(CC(=O)O)c2cc(F)ccc2/C1=C\c1ccc(Sc2nc3ccccc3[nH]2)cc1 [C36, (Z)-2-(1-(4-((1H-Benzo[d]imidazol-2-yl)thio)benzylidene)-5-fluoro-2-methyl-1H-inden-3-yl)acetic acid]
inhibition at 3.3 µM (HeLa (cervical cancer); [6]): < 30%
inhibition at 10 µM (HeLa (cervical cancer); [6]): 30 to 50%
inhibition at 3.3 µM (HepG2 (liver cancer); [7]): < 30%
inhibition at 10 µM (HepG2 (liver cancer); [7]): < 30%
inhibition at 30 µM (HepG2 (liver cancer); [8]): < 30%
inhibition at 10 µM [1]: < 30%
inhibition at 3.3 µM [2]: < 30%
inhibition at 10 µM [2]: 30 to 50%
inhibition at 3.3 µM (SW480 (colon cancer); [9]): < 30%
inhibition at 10 µM (SW480 (colon cancer); [9]): 30 to 50%
inhibition at 30 µM (SW480 (colon cancer); read-out: Antiproliferative activity in cancerous cells, SW480): 30 to 50%
inhibition at 3.3 µM [3, 10]: < 30%
inhibition at 10 µM [3, 10]: < 30%
inhibition at 30 µM [3, 11]: < 30%
inhibition at 3.3 µM [4, 12]: < 30%
inhibition at 10 µM [4, 12]: < 30%
inhibition at 30 µM [4, 13]: 30 to 50%
inhibition at 3.3 µM [5, 14]: < 30%
inhibition at 10 µM [5, 14]: < 30%
inhibition at 30 µM [5, 15]: 30 to 50%

CC1=C(CC(=O)N2CCN(CCO)CC2)c2cc(F)ccc2/C1=C\c1ccc(Oc2ccc(F)cc2)cc1 [C37, (Z)-2-(5-Fluoro-1-(4-(4-fluorophenoxy)benzylidene)-2-methyl-1H-inden-3-yl)-1-(4-(2-hydroxyethyl)piperazin-1-yl)ethan-1-one]
inhibition at 3.3 µM (HeLa (cervical cancer); [6]): < 30%
inhibition at 10 µM (HeLa (cervical cancer); [6]): < 30%
inhibition at 30 µM (HeLa (cervical cancer); [16]): < 30%
inhibition at 3.3 µM (HepG2 (liver cancer); [7]): < 30%
inhibition at 10 µM (HepG2 (liver cancer); [7]): < 30%
inhibition at 10 µM [1]: > 80%
inhibition at 3.3 µM [2]: < 30%
inhibition at 10 µM [2]: < 30%
inhibition at 3.3 µM (SW480 (colon cancer); [9]): < 30%
inhibition at 10 µM (SW480 (colon cancer); [9]): < 30%
inhibition at 3.3 µM [3, 10]: < 30%
inhibition at 10 µM [3, 10]: < 30%
inhibition at 30 µM [3, 11]: 30 to 50%
inhibition at 3.3 µM [4, 12]: < 30%
inhibition at 10 µM [4, 12]: < 30%
inhibition at 30 µM [4, 13]: < 30%
inhibition at 3.3 µM [5, 14]: < 30%
inhibition at 10 µM [5, 14]: < 30%

CC1=C(CC(=O)NCCN(C)C)c2cc(F)ccc2/C1=C\c1ccc(Oc2ccc(F)cc2)cc1 [C38, (Z)-N-(2-(Dimethylamino)ethyl)-2-(5-fluoro-1-(4-(4-fluorophenoxy)benzylidene)-2-methyl-1H-inden-3-yl)acetamide]
inhibition at 3.3 µM (HeLa (cervical cancer); [6]): < 30%
inhibition at 10 µM (HeLa (cervical cancer); [6]): ≥ 50%
inhibition at 3.3 µM (HepG2 (liver cancer); [7]): < 30%
inhibition at 10 µM (HepG2 (liver cancer); [7]): ≥ 50%
inhibition at 10 µM [1]: > 80%
inhibition at 3.3 µM [2]: < 30%
inhibition at 10 µM [2]: ≥ 50%
inhibition at 3.3 µM (SW480 (colon cancer); [9]): < 30%
inhibition at 10 µM (SW480 (colon cancer); [9]): ≥ 50%
inhibition at 3.3 µM [3, 10]: < 30%
inhibition at 10 µM [3, 10]: ≥ 50%
inhibition at 3.3 µM [4, 12]: ≥ 50%
inhibition at 10 µM [4, 12]: ≥ 50%
inhibition at 3.3 µM [5, 14]: ≥ 50%
inhibition at 10 µM [5, 14]: ≥ 50%

CC1=C(CC(=O)NCCN2CCOCC2)c2cc(F)ccc2/C1=C\c1ccc(Oc2ccc(F)cc2)cc1 [C39, (Z)-2-(5-Fluoro-1-(4-(4-fluorophenoxy)benzylidene)-2-methyl-1H-inden-3-yl)-N-(2-morpholinoethyl)acetamide]
inhibition at 3.3 µM (HeLa (cervical cancer); [6]): < 30%
inhibition at 10 µM (HeLa (cervical cancer); [6]): < 30%
inhibition at 30 µM (HeLa (cervical cancer); [16]): < 30%
inhibition at 3.3 µM (HepG2 (liver cancer); [7]): < 30%
inhibition at 10 µM (HepG2 (liver cancer); [7]): < 30%
inhibition at 30 µM (HepG2 (liver cancer); [8]): < 30%
inhibition at 10 µM [1]: 50 to 80%
inhibition at 3.3 µM [2]: < 30%
inhibition at 10 µM [2]: < 30%
inhibition at 3.3 µM (SW480 (colon cancer); [9]): < 30%
inhibition at 10 µM (SW480 (colon cancer); [9]): < 30%
inhibition at 3.3 µM [3, 10]: < 30%
inhibition at 10 µM [3, 10]: < 30%
inhibition at 30 µM [3, 11]: < 30%
inhibition at 3.3 µM [4, 12]: < 30%
inhibition at 10 µM [4, 12]: < 30%
inhibition at 30 µM [4, 13]: < 30%
inhibition at 3.3 µM [5, 14]: < 30%
inhibition at 10 µM [5, 14]: 30 to 50%
inhibition at 30 µM [5, 15]: 30 to 50%

CC(C)c1ccc(/C=C2/C(Cc3ccc(F)cc3)=C(CC(=O)O)c3cc(F)ccc32)cc1 [D2, (Z)-2-(5-Fluoro-2-(4-fluorobenzyl)-1-(4-isopropylbenzylidene)-1H-inden-3-yl)-acetic acid]
inhibition at 3.3 µM (HeLa (cervical cancer); [6]): 30 to 50%
inhibition at 10 µM (HeLa (cervical cancer); [6]): ≥ 50%
inhibition at 30 µM (HeLa (cervical cancer); [6]): ≥ 50%
inhibition at 3.3 µM (HepG2 (liver cancer); [7]): < 30%
inhibition at 10 µM (HepG2 (liver cancer); [7]): ≥ 50%
inhibition at 30 µM (HepG2 (liver cancer); [7]): ≥ 50%
inhibition at 10 µM [1]: > 80%
inhibition at 3.3 µM [2]: ≥ 50%
inhibition at 10 µM [2]: ≥ 50%
inhibition at 30 µM [2]: ≥ 50%
inhibition at 3.3 µM (SW480 (colon cancer); [9]): < 30%
inhibition at 10 µM (SW480 (colon cancer); [9]): ≥ 50%
inhibition at 30 µM (SW480 (colon cancer); [9]): ≥ 50%
inhibition at 3.3 µM [3, 10]: < 30%
inhibition at 10 µM [3, 10]: ≥ 50%
inhibition at 30 µM [3, 10]: ≥ 50%
inhibition at 3.3 µM [4, 12]: < 30%
inhibition at 10 µM [4, 12]: ≥ 50%
inhibition at 30 µM [4, 12]: ≥ 50%
inhibition at 3.3 µM [5, 14]: 30 to 50%
inhibition at 10 µM [5, 14]: ≥ 50%
inhibition at 30 µM [5, 14]: ≥ 50%

CC1=C(CC(=O)O)c2c(F)cc(F)cc2/C1=C\c1cccc(C(F)(F)F)c1 [D6, (Z)-2-(4,6-Difluoro-2-methyl-1-(3-(trifluoromethyl)benzylidene)-1H-inden-3-yl)-acetic acid]
inhibition at 3.3 µM (HeLa (cervical cancer); [6]): < 30%
inhibition at 10 µM (HeLa (cervical cancer); [6]): < 30%
inhibition at 30 µM (HeLa (cervical cancer); [6]): ≥ 50%
inhibition at 3.3 µM (HepG2 (liver cancer); [7]): < 30%
inhibition at 10 µM (HepG2 (liver cancer); [7]): < 30%
inhibition at 30 µM (HepG2 (liver cancer); [7]): 30 to 50%
inhibition at 10 µM [1]: < 30%
inhibition at 3.3 µM [2]: < 30%
inhibition at 10 µM [2]: < 30%
inhibition at 30 µM [2]: ≥ 50%
inhibition at 3.3 µM (SW480 (colon cancer); [9]): < 30%
inhibition at 10 µM (SW480 (colon cancer); [9]): < 30%
inhibition at 30 µM (SW480 (colon cancer); [9]): 30 to 50%
inhibition at 3.3 µM [3, 10]: < 30%
inhibition at 10 µM [3, 10]: < 30%
inhibition at 30 µM [3, 10]: < 30%
inhibition at 3.3 µM [4, 12]: < 30%
inhibition at 10 µM [4, 12]: < 30%
inhibition at 30 µM [4, 12]: < 30%
inhibition at 3.3 µM [5, 14]: < 30%
inhibition at 10 µM [5, 14]: < 30%
inhibition at 30 µM [5, 14]: ≥ 50%

— patent US20260184663A1, “INDENE COMPOUNDS, PHARMACEUTICAL COMPOSITIONS THEREOF, AND THEIR THERAPEUTIC APPLICATIONS” (NucMito Pharmaceuticals co. Ltd., priority 2022, published 2026)
